Tests used:
IPF-lung myofibroblasts = assay: Anti-Fas mAb-mediated cell death of IPF-lung myofibroblasts (trypan blue, caspase-3 cleavage); assay type: cell-based, human
Description: Cell death and apoptosis Apoptosis was assessed with Annexin V affinity labeling, trypan blue exclusion, and caspase-3 cleavage in WB as described in Golan-Gerstl et al., Am. J. Respir. Cell Mol. Biol. 36: 270-275, 2007; Wallach-Dayan et al., PNAS USA 104: 20460-20465, 2007; and Wallach-Dayan et al., Am. J. Physiol. Lung Cell Mol. Physiol. 290: L790-L796, 2006.
Caspase-8 activation further targets effector caspase-3 and caspase-7, a parallel […] pathway, caspases 6 and 9, MAPKs, and Bim phosphorylations with binding cascades to Bax, Apaf-1, and caspase-9, allowing Bax-mediated cell death to be detected as well. Concomitantly, inhibitors of these processes, including FLIP, show negative interaction with FADD and with the inhibitors of apoptotic proteins (IAPs). […] In addition, CMH increased CH-11 anti-human Fas mAb-mediated IPF-myofibroblast cell death (24 h, 10 μM) above that produced by treatment with the vehicle alone (4% DMSO), as shown by microscope images (FIG. 5A) and trypan blue exclusion (FIG. 5A, quantification in inserts, and FIG. 5B, graphical representation), with 0.9-1×10^5 viable cells in control compared to only 0.3×10^5 cells following CMH. In fact, CMH-treated cells were 10 times more likely to undergo Fas-induced apoptosis (2.8 compared to 0.3), as determined by the OD of cleaved to uncleaved caspase-3 ratios (FIG. 5C). CMH therefore amplifies Fas signaling cascades above those induced by Fas alone. Thus, multiple intracellular anti-apoptotic signaling pathways mediated by SIRT1 and Ku70 were altered by CMH in vitro, which further enhanced Fas-apoptosis cascades.

IPF cell line ATCC191 = assay: Total cell-lysate pan-acetyl immunoblot; assay type: cell-based, human; details: CMH 30 μM; vehicle 0.62
Description: IPF cell line ATCC191 and Normal cell line ATCC151 (0.5×10^6, 191 and 151, respectively), were cultured (10% DMEM) and total cell acetylations was compared. IPF cell line ATCC191 were further exposed in culture (10% DMEM) to CMH (30 μM, vs. 4% DMSO (vehicle)). Total cell-lysate immunoblots with subsequent pan-acetyl in IPF-lung vs. normal-lung myofibroblasts (191 vs. 151) was measured (FIG. 7A). IPF-lung myofibroblasts treated with CMH were compared to control treatment with vehicle (FIG. 7B). […] Thus, CMH inhibits IPF cell proteins-deacetylation and normalized it.

HDAC1 = HDAC1 (Homo sapiens, UniProt Q13547); details: prostate cancer cells; cited from earlier work
Sequence of HDAC1 (Q13547 whole entry, species assumed): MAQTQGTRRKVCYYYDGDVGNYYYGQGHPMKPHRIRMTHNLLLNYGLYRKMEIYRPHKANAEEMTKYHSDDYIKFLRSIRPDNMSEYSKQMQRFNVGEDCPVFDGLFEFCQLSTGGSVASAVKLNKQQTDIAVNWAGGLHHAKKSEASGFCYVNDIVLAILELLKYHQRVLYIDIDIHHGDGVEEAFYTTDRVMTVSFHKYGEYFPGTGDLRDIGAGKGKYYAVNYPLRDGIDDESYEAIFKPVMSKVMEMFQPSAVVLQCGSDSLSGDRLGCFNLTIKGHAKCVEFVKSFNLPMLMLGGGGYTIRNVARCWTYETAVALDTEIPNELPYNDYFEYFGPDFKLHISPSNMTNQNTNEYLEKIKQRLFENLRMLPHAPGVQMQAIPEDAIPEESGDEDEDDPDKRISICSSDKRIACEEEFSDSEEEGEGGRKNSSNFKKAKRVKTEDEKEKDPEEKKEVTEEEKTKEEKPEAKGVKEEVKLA

HDAC2 = HDAC2 (Homo sapiens, UniProt Q92769); details: prostate cancer cells; cited from earlier work
Sequence of HDAC2 (Q92769 whole entry, species assumed): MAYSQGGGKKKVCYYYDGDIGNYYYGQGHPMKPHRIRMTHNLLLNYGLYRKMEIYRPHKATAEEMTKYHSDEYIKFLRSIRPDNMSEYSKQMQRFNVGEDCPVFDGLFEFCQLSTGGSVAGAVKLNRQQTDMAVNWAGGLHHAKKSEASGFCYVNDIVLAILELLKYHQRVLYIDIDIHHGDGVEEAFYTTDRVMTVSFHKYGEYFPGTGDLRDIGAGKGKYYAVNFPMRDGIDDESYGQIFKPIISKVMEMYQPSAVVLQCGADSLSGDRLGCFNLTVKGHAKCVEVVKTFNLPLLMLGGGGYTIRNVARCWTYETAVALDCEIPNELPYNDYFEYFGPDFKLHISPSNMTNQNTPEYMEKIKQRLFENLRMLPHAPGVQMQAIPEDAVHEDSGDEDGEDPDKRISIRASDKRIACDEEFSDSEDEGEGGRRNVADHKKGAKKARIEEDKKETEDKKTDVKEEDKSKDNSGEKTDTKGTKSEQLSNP

HDAC4 = HDAC4 (Homo sapiens, UniProt P56524); details: prostate cancer cells; cited from earlier work
Sequence of HDAC4 (P56524 whole entry, species assumed): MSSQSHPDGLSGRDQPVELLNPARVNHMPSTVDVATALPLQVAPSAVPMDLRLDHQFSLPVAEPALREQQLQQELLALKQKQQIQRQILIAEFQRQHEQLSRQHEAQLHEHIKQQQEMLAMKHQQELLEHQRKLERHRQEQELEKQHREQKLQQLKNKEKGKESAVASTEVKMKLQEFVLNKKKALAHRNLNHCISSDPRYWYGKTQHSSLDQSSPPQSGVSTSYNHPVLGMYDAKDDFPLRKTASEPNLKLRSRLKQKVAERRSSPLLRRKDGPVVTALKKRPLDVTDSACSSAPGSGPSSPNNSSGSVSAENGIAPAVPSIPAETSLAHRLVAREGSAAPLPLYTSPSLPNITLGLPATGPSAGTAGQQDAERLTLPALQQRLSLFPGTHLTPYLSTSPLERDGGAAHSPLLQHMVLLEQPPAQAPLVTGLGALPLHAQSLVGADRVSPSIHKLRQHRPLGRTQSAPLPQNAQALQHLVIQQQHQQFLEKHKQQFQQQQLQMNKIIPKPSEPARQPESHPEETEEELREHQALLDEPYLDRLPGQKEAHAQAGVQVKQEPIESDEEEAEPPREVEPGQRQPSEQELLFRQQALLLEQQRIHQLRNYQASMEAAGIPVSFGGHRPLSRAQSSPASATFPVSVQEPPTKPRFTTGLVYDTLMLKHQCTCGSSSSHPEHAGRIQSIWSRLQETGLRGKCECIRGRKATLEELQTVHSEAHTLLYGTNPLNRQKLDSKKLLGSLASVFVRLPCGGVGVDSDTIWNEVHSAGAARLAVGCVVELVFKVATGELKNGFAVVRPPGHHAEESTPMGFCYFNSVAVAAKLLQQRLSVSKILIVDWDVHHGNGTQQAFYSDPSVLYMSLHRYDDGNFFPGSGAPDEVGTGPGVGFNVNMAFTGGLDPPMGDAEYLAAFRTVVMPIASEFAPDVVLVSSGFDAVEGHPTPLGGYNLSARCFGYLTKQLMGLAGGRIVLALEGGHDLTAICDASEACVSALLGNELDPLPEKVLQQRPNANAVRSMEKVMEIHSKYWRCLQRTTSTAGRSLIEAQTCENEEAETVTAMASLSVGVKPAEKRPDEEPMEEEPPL

HDAC7 = target: T1, HDAC7 (Homo sapiens, UniProt Q8WUI4); details: prostate cancer cells; cited from earlier work
T1 sequence (Q8WUI4 1-952): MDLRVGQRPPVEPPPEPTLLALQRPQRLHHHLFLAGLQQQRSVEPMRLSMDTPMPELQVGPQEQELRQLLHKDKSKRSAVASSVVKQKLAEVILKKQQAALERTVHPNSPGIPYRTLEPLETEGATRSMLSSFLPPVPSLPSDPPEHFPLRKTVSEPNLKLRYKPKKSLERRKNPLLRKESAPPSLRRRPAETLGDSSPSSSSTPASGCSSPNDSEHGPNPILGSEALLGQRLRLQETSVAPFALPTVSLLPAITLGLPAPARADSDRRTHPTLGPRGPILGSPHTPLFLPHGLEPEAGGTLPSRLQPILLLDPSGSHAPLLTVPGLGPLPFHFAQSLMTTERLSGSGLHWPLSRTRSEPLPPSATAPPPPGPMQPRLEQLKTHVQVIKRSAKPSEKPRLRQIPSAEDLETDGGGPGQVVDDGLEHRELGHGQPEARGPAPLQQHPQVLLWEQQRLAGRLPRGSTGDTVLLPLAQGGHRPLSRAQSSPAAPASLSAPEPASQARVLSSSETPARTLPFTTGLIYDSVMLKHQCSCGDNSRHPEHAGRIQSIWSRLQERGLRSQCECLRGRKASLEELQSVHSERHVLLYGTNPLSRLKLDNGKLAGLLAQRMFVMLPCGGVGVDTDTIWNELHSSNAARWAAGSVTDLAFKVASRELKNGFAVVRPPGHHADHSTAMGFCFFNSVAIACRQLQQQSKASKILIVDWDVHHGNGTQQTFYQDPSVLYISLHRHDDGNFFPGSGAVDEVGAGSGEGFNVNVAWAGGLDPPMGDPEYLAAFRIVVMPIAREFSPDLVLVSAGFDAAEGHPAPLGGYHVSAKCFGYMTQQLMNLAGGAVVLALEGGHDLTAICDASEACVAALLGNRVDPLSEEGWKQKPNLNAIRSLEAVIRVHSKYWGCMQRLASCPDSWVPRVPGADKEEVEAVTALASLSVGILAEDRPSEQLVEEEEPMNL

HDAC10 = target: T2, HDAC10 (Homo sapiens, UniProt Q969S8); details: prostate cancer cells; cited from earlier work
T2 sequence (Q969S8 1-669): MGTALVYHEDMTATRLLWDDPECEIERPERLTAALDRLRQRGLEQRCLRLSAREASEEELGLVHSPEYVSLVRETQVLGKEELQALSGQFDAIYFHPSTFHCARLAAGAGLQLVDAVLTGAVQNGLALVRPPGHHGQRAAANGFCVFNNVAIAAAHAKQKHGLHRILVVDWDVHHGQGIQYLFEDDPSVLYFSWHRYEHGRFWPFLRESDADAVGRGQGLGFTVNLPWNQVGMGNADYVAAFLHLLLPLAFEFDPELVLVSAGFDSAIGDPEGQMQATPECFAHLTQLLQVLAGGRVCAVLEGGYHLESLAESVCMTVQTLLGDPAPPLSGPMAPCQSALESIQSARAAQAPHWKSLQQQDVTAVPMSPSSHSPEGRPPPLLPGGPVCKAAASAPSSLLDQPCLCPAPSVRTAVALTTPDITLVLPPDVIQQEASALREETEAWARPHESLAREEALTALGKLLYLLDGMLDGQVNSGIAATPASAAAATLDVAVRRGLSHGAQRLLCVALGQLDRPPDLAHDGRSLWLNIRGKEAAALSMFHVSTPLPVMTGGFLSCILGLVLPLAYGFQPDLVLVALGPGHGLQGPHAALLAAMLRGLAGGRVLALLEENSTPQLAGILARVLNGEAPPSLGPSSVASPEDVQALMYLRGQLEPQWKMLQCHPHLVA

For `Cc1cc(Cl)ccc1OCCCC(=O)NO` [CMH, 4-(4-chloro-2-methylphenoxy)-N-hydroxybutanamide], the “Viable cells, trypan blue exclusion” value (IPF-lung myofibroblasts; CMH plus CH-11 anti-human Fas mAb (24 h, 10 μM), control 0.9-1×10^5) was 0.3×10^5 cells, the “OD of cleaved to uncleaved caspase-3 ratio” value (IPF-lung myofibroblasts; CMH plus anti-Fas mAb, vehicle 0.3) was 2.8 and the “Likelihood to undergo Fas-induced apoptosis vs. vehicle” value (IPF-lung myofibroblasts; from cleaved to uncleaved caspase-3 ratios) was 10 times. The “Protein acetylation, optical density ratio to GAPDH (OD) in pan-acetyl immunoblots” value (IPF cell line ATCC191) was 1.77 OD, the “Inhibition of HDAC1” value (HDAC1) was “not inhibited” and the “Inhibition of HDAC2” value (HDAC2) was “not inhibited”. The “Inhibition of HDAC4” value (HDAC4) was “not inhibited”, the “Inhibition of HDAC7” value (HDAC7) was “not inhibited” and the “Inhibition of HDAC10” value (HDAC10) was “not inhibited”.
